In patent publication US9577283B2, “Energy storage battery” (NISSIN ELECTRIC CO., LTD., priority 2012, dated 2017):

Experiment: attempt to prepare 0.2 mol/L aqueous solution of Mn(II) complex (deposition of manganese compound)
Assay type: physicochemical
Details: target concentration 0.2 mol/L, metal:ligand 1:1, pH 7, with Na2SO4
Excerpt: Accordingly, it was known that if malonic acid as a polycarboxylic acid is used instead of polyethyleneimine, it is impossible to prepare a cathode electrolyte containing a Mn(II) complex in a sufficient concentration.
Accordingly, it was known that if succinic acid as a polycarboxylic acid is used instead of polyethyleneimine, it is impossible to prepare a cathode electrolyte containing a Mn(II) complex at a sufficient concentration.
Accordingly, it was known that if ethylenediamine is used instead of polyethyleneimine, it is impossible to prepare a cathode electrolyte containing a Mn(II) complex at a sufficient concentration.
Meanwhile, the cathode electrolyte was prepared as follows. Firstly, 0.1 mol (6.0 g) of ethylenediamine was added to and dissolved in 70 ml of distilled water.

Substance: Mn(II)-malonic acid complex
- deposition of manganese compound on preparing aqueous solution: manganese compound is immediately deposited
